Assay results reported in a melting point compilation (Tetko et al.; mined from patent text by program, amines drawn as free bases though some values may be those of a salt).

| SMILES | melting point |
| --- | --- |
| O=c1c2cccnc2n(-c2cccc([N+](=O)[O-])c2)c(=O)n1CC(F)(F)F | 228 to 229 °C |
| Clc1ccc(Nc2nc(-c3cccc(Br)n3)nc3ccccc23)cc1 | 242 to 248 °C |
| CC(C)(C)OC(=O)Nc1cnc(F)cc1C(=O)CC#N | 106 to 115 °C |
| CS(=O)(=O)c1ccc(C(=O)Nc2ccc(-n3nc(C4CC4)cc3C3CC3)cc2)cc1 | 171 to 176 °C |
| O=C(O)c1cccc(-c2nc(-c3ccc(F)c(F)c3)cs2)c1 | 255 to 256 °C |
| CC(=O)Nc1ccc(OC(C)=O)c(C(=O)Nc2cccc3[nH]ccc23)c1 | 263 °C |
| O[C@H]1c2cc(OCc3ccncc3)ccc2OC[C@H]1Cc1cccnc1 (relative stereo) | 100 to 102 °C |
| COC(=O)COc1ccc(O)c(C(C)(C)C)c1 | 87 to 89 °C |
| O=[N+]([O-])c1c(NCC(O)CO)cccc1NCC(O)CO (stereo unspecified) | 138 °C |
| CCOC(=O)Nc1c(C(=O)c2cccc(C)c2)[nH]c2cc(Cl)ccc12 | 154 to 157 °C |
| N=C(NO)c1ccc2cc(O)c(O)cc2c1 | 238 to 243 °C |
| CS(=O)(=O)c1ccc(-c2c(-c3ccccc3)noc2C(F)F)cc1 | 126 to 128 °C |
| Cc1nc(-c2ccc(Cl)cc2)c(CCC(=O)O)o1 | 211 to 212 °C |
| O=[N+]([O-])c1ccc(Oc2ccc(Oc3ccc([N+](=O)[O-])cc3)c(P(=O)(c3ccccc3)c3ccccc3)c2)cc1 | 239 to 242 °C |
| CNc1nc(-c2cccc(Oc3ccccc3)c2)c2cc(OC)c(OC)cc2n1 | 157 to 159 °C |
| O=C(O)c1cc(-n2c(-c3ccccc3)cc3c2Cc2ccccc2-3)ccc1O | 201 to 205 °C |
| COC(=O)c1c(OC)cc(CC(C#N)=CNc2ccccc2)cc1OC | 193 to 194 °C |
| COc1cccc(C(O)CN(C)Cc2sc3c(=O)c(C(=O)NCc4ccc(Cl)cc4)cn(C)c3c2COCC[Si](C)(C)C)c1 (stereo unspecified) | 150 to 152 °C |
| c1ccc(-c2ccc(-n3cccc3)cc2)cc1 | 190 to 192 °C |
| CC(C)CNC(=O)C(O)C(CC1CCCCC1)NC(=O)C(Cc1c[nH]cn1)NC(=O)C(CC(=O)N1CCOCC1)Cc1cccc2ccccc12 (mixture of isomers) | 119 to 125 °C |
| CC(=O)Oc1c(Cl)c(C)nc(C)c1-c1ccc(Oc2ccc(OC(F)(F)F)cc2)cc1 | 78 to 80 °C |
| COC(=O)CCCCCS(=O)c1ccc(-c2ccc(Cl)cc2)cc1 (stereo unspecified) | 64 to 65 °C |
| O=C(NCc1ccc(Cl)cc1)c1cnc2cc(C(F)(F)F)ccc2c1O | 189 to 190 °C |
| O=C(Cn1ccnc1)N1CCC(Oc2c(F)c(F)c(F)c(F)c2F)CC1 | 95 to 96 °C |

| SMILES | melting point |
| --- | --- |
| COC(=O)c1cc2c(NC3CCC(O)CC3)nc(-c3ccccc3)nc2[nH]1 (stereo unspecified) | 225 to 227 °C |
| CC(C)Nc1nc2ccccc2n2c(C(F)(F)F)nnc12 | 185 to 187 °C |
| COC(=O)c1c(N)ncn1C1c2ccccc2CCC1(C)C (stereo unspecified) | 193 to 195 °C |
| CCOC(=O)COc1cc(-n2nc(C)n(C(F)F)c2=O)c(Cl)cc1Cl | 118 to 119 °C |
| Cc1nnc(N2N=C(c3cc(C)c([N+](=O)[O-])c(C)c3)c3cc4c(cc3C[C@H]2C)OCO4)o1 | 132 to 133 °C |
| CSc1c(C(=O)O)ccc(Br)c1Cl | 128 to 130 °C |
| COc1ccccc1OCC1SCCN1C(=O)CBr (stereo unspecified) | 82 to 84 °C |
| CCN(C)C(=O)C(Cc1ccc(C#N)cc1)NC(=O)C(Cc1ccc(OC)cc1)S(=O)(=O)Nc1ccc(Cl)c(Cl)c1 (stereo unspecified) | 192 °C |
| O=S(=O)(c1ccccc1)n1c2cc(O)c(O)cc2c2ccc(O)c(O)c21 | 176 to 178 °C |
| COC(=O)c1ncccc1NC(=O)C(C)CSC(C)=O (stereo unspecified) | 54 to 56 °C |
| Cc1ccc(S(=O)(=O)Oc2c(-c3ccc(S(C)(=O)=O)cc3)cnn(-c3cccc(Cl)c3)c2=O)cc1 | 198 to 200 °C |
| Oc1cccc(-c2n[nH]c3c2Cc2ccccc2-3)c1 | 302 to 304 °C |
| Cc1ccc(-c2cn(C)cc(-c3ccccc3C)c2=O)cc1 | 151 to 154 °C |
| O=C(O)CCc1ccc(-c2cccc(-c3ccnc4c(C(=O)c5cccs5)cnn34)c2)cc1 | 117 to 119 °C |
| NCC1(SCc2ccccc2)C2CC3CC(C2)CC1C3 (stereo unspecified) | 82 to 85 °C |
| CN1CCN(c2cccc3c2C[C@H](NS(C)(=O)=O)CC3)CC1 | 135 to 137 °C |
| CC1(C)CC(=O)c2c(SCc3ccccc3)c[nH]c2C1 | 220 to 223 °C |
| O=C1OC(c2ccccc2)(c2ccccc2)C2CN(S(=O)(=O)c3ccccc3)CCN12 (stereo unspecified) | 236 to 237 °C |
| Nc1nc(OCc2ccccc2)nc2c1ncn2C1OC(CO)C(O)C1O (stereo unspecified) | 178 to 179 °C |
| Nc1cc(C(F)(F)C(F)(F)C(F)(F)C=CC(F)(F)C(F)(F)C(F)(F)c2ccc(O)c(N)c2)ccc1O | 187 to 188 °C |
| COc1cccc(Oc2ccc([N+](=O)[O-])c(C(=O)O)c2)c1 | 146 to 151 °C |
| Brc1ccc2[nH]c(-c3ccccc3)c(CCN3CCCCC3)c2c1 | 121 to 122 °C |
| CCOC(=O)c1cnc2ccc(Cl)cc2c1-c1ccccc1 | 123 to 124 °C |
| NC(=S)c1ccc(O)cc1O | 164 to 166 °C |

| SMILES | melting point |
| --- | --- |
| Cc1ccc(F)cc1C(=O)Nc1ccc(C(=O)N2Cc3ccccc3Oc3ccccc32)cn1 | 180 to 186 °C |
| O=C(O)C1COc2cc(Cl)c(Cl)cc2O1 (stereo unspecified) | 155 to 158 °C |
| CC(=O)NCc1ccc(CN2CCN(c3ccc(Cl)cc3)CC2)cc1 | 180 to 182 °C |
| FC(F)(F)c1cccc(N2CCN(CC[C@H]3CC[C@H](Nc4ncccn4)CC3)CC2)c1 | 167 °C |
| Cc1c(Cl)cccc1C(=N)NO | 119 to 121 °C |
| CCCCC(=N)Nc1ccccc1N1CCOCC1 | 135 to 136 °C |
| CC(C)[C@H](NC(=O)[C@@H]1CCCN1C(=O)[C@@H](NC(=O)Cn1ccc(=O)n(CC(=O)O)c1=O)C(C)C)C(=O)c1nc2ccccc2o1 | 135 to 140 °C |
| CCC(CCC1(C(N)=O)c2ccccc2-c2ccccc21)NC(C)C (stereo unspecified) | 161 to 163 °C |
| O=c1oc2ccc(-c3ccc(F)cc3F)cc2c(=O)n1-c1cc(F)ccc1F | 144 to 145 °C |
| COC(=O)Cc1ccc(OCCNC(=O)C2Cc3ccccc3N2S(=O)(=O)c2ccc(-c3cc(C(F)(F)F)ccc3F)cc2)cc1 (stereo unspecified) | 52 to 55 °C |
| Clc1ccc(N2CCN(Cc3n[nH]c4ccccc34)CC2)cc1 | 223 to 224 °C |
| NS(=O)(=O)c1ccc(-c2cccc(-c3nc(-c4ccc(C(F)(F)F)c(F)c4)cc(C(F)(F)F)n3)c2)s1 | 214 °C |
| N#CC(C(=O)Nc1ccccc1)C(=O)c1nn(-c2ccccc2)c2c1CSc1ccc(N=CN3CCOCC3)cc1-2 (stereo unspecified) | 205 to 210 °C |
| COc1ccc(CN2CCCc3cc(OCc4ccccc4)c(OC)cc3C2)cc1 | 87 to 88 °C |
| Cc1cc(C)c2c(n1)N(CCN(C)C)C(=O)N(C)C2 | 105 to 107 °C |
| N#Cc1cccc(-c2ccc3c(Cl)cnc(Cl)c3c2)c1 | > 300 °C |
| CN(C=O)c1c2oc3ccccc3c2nn1C | 135 to 138 °C |
| COc1ccc2ccc(N3C(=O)c4ccccc4C3OC(=O)CCC(C)C)nc2n1 (stereo unspecified) | 133 °C |
| CS(=O)(=O)c1ccc(-c2cnn(CC(F)(F)F)c(=O)c2OCc2ccccc2)cc1 | 121 to 123 °C |
| O=C(NCCc1ccccc1)c1ccccc1-c1ccccc1CNS(=O)(=O)c1cccc(C(F)(F)F)c1 | 145 °C |
| COc1ccc(-c2c(N)cnc3ccc(Cl)cc23)c(OC)c1OC | 180 to 181 °C |
| COc1ccc(Oc2c(-c3ccc(S(C)(=O)=O)cc3)cnn(-c3cccc(Cl)c3)c2=O)cc1 | 182 to 184 °C |
| Cc1c(-c2ccc(O)cc2)n(Cc2ccc(C#CCN3CCCCC3)cc2)c2ccc(O)cc12 | 118 to 123 °C |
| COc1c(C)cc(N=C=S)cc1C(=S)N(C)C | 74 to 75 °C |

| SMILES | melting point |
| --- | --- |
| COCCCNC(=O)NC(=O)C(C#N)=NO | 126 to 127 °C |
| CCC1NC(C(=O)O)Cc2c1[nH]c1ccccc21 (stereo unspecified) | 236 to 237 °C |
| COC(=O)c1cccc(Oc2ccnc(Cl)c2)n1 | 89 °C |
| COc1c(N2CCC(C(O)CO)CC2)c(F)cc2c(=O)c(C(=O)O)cn(C3CC3)c12 (stereo unspecified) | 200 to 204 °C |
| CCN1C(=O)[C@@H](N)COc2ccccc21 | 97 °C |
| CCCn1c(=O)c2[nH]c(C3CCCO3)nc2n(CCC)c1=O (stereo unspecified) | 155 to 158 °C |
| CN1CCC(N(Cc2cccn2C)S(=O)(=O)c2ccc(Nc3nccc(Nc4ccc(F)cc4)n3)cc2)CC1 | 129 °C |
| CN1CCOc2cc(S(=O)(=O)n3c(CCC(=O)O)cc4nc(Cl)ccc43)ccc21 | 175 to 185 °C |
| O=C(Cc1c(Br)cnc2c(NC(=O)c3c(Cl)cccc3Cl)cccc12)NCc1ccccn1 | 197 to 199 °C |
| O=S(CCCCOc1ccc(C2=C(c3ccccc3)CCCc3cc(O)ccc32)cc1)CCCC(F)(F)C(F)(F)F (stereo unspecified) | 155 °C |
| COC(=O)[C@@H](C)Nc1ncccc1NC(=O)c1ccc(Cl)cc1 | 125 to 134 °C |
| CN(Cc1ccccc1)C(=O)c1c(-c2ccncc2)c(-c2ccc(F)cc2)nn1C | 149 to 150 °C |
| CCN(Cc1ccc(C(=O)O)cc1)c1cc(Br)ccc1OCc1ccccc1 | 94.5 to 95 °C |
| COc1cc(CBr)ccc1OC(=O)c1ccccc1 | 86 to 88 °C |
| CCNC(=S)NC1CCCc2ccccc21 (stereo unspecified) | 120 to 122 °C |
| Cc1cnc(NN)nc1N | 174 to 175 °C |
| C=Cc1nc(C#N)c(C#N)n1CC | 66 to 70 °C |
| O=C1CC(c2cccc(-n3ccnc3)c2)=Nc2cc(N3C[C@@H](O)[C@@H](O)C3)c(-c3ccc(F)cc3)cc2N1 | 244 °C |
| COc1ccc(N2CCc3c(C)nc4c(OC)cccc4c32)c(C)c1 | 163 to 167 °C |
| CNC(=O)N(c1ccncc1)n1cccc1 | 156 to 160 °C |
| O=C(O)c1cscc1Br | 157 to 158 °C |
| COC(=O)c1ccc(Cn2c(=O)c(C)c3sc(C(=O)NCc4ccc(F)cc4)cn3c2=O)cc1C | 179 to 180 °C |
| COc1ccc([C@@H]2C=C[C@H](C(=O)O)n3c(=O)n(CCCl)c(=O)n32)cc1 (relative stereo) | 158 to 161 °C |
| COP(=O)(Cc1cc(Cl)c(O)c(C(C)(C)C)c1)OC | 107 °C |
